How the values were obtained:
zebrafish larvae = test: Chemical treatment of zebrafish larvae by bath immersion; counting of neutrophils and erythrocytes; type: in vivo, Zebrafish (Danio rerio H.)
Protocol: FIG. 3. ZAKα regulates hematopoiesis in zebrafish through the Nlrp1 inflammasome. Number of neutrophils (B, D, H), erythrocytes (F) and macrophages (J), and caspase-1 activity (K) in 2 dpf larvae either treated from 1 to 2 dpf by bath immersion with 1 μM nilotinib and/or 100 μM anisomycin (A-D) or obtained by injecting one-cell stage embryos with standard or zaka crRNAs/Cas9 complexes (E-K). Representative images of neutrophils (A, C, G), erythrocytes (E) and macrophages (I) are also shown. Each dot represents one individual and the mean±SEM for each group is also shown. P values were calculated using one-way ANOVA and Tukey's multiple range test (B) or Student's t-test (D, F, H, J, K). n.s., non-significant; *P<0.05; **P<0.01; ***P<0.001.
(§1) FIG. 6. NLRP1 is activated by phosphorylation of the linker domain after activation of ZAKα and pharmacological inhibition of this signaling pathway promotes erythropoiesis in DBA. (A-D) Number of neutrophils (A-C), and caspase-1 activity (D) in 2 dpf larvae obtained by injection of one-cell stage embryos with human NLRP1 (wild type-WT, S107A and S107D) and treated from 1 to 2 dpf by bath immersion with 1 μM nilotinib (B-D). Representative images of neutrophils (arrows) are also shown in C. (E, F) BMMCs from a DBA patient were incubated for 2 weeks in human methylcellulose complete medium at 37° C. in the presence or absence of the indicated concentrations of nilotinib, and colonies were counted using standard morphological criteria. Each dot represents one individual and the mean±SEM for each group is also shown. P values were calculated by one-way ANOVA and Tukey's multiple range test. n.s., non-significant; *P<0.05; **P<0.01; ***P<0.001; ****P<0.0001.
FIG. 10. Imatinib and dasatinib promote erythropoiesis in human and zebrafish. (A) K562 cells were pretreated with the indicated concentrations of nilotinib, imatinib or dasatinib for 24 h and then differentiated with 50 μM hemin for 24 h. The amounts of NLRP1, GATA1, phosphorylated P38, total ZAKα and ACTB were then evaluated by western blot. (B) Zebrafish larvae were treated from 1 to 2 dpf with the indicated concentrations of nilotinib, imatinib or dasatinib. Representative images and number of neutrophils in larvae of 2 dpf treated by bath immersion with the indicated concentrations of imatinib and dasatinib. Each dot represents one individual and the mean±SEM for each group is also shown. P values were calculated by one-way ANOVA and Tukey's multiple range test. n.s., non-significant. ***P<0.001; ****P<0.0001.
FIG. 11. Ponatinib and bosutinib promote erythropoiesis in human and zebrafish. (A) K562 cells were pretreated with the indicated concentrations of nilotinib, ponatinib and bosutinib for 24 h and then differentiated with 50 μM hemin for the indicated times. The amounts of NLRP1, total ZAKα, GATA1, phosphorylated P38 and ACTB were then evaluated by western blot. (B) Number of neutrophils in larvae of 2 dpf treated by bath immersion with the indicated concentrations of ponatinib and bosutinib. Each dot represents one individual and the mean±SEM for each group is also shown. P values were calculated by one-way ANOVA and Tukey's multiple range test. n.s., non-significant, *P<0.05. **P<0.01. ***P<0.001.
Zebrafish (Danio rerio H.) were obtained from the Zebrafish International Resource Center and mated, staged, raised and processed as described in The Zebarfish Book. The lines Tg(mpx:eGFP)^t114, Tg(lyz:DsRED2)^n250, Tg(mfap4:mCherry)^ump6, Tg(gata1a:DsRed)^sd2 Tg(runx1:GAL4)^utn6), Tg(UAS-E1B:NTR-mCherry) and casper (mitfa^w2/w2; mpv17^a9/a9) were previously described. spint1a^hi2217Tg/hi2217Tg was isolated from insertional mutagenesis screens. The experiments performed comply with the Guidelines of the European Union Council (Directive 2010/63/EU) and the Spanish RD 53/2013. The experiments and procedures performed were approved by the Bioethical Committees of the University of Murcia (approval number #669/2020). […]

caspase-1 = test: Caspase-1 activity assay in zebrafish larvae (Z-YVAD-AFC); type: in vivo, Zebrafish (Danio rerio H.)
Protocol: as §1, with “****P<0.0001. […]” for “****P<0.0001.”
Caspase-1 activity was determined with the fluorometric substrate Z-YVAD 7-Amido-4-trifluoromethylcoumarin (Z-YVAD-AFC, caspase-1 substrate VI, Calbiochem). […] After incubation, the fluorescence of AFC released from the Z-YVAD-AFC substrate was measured with a FLUOstart spectrofluorometer (BGM, LabTechnologies) at an excitation wavelength of 405 nm and an emission wavelength of 492 nm.

[1] = tested on: RPS19-deficient CD34+ cells; test: Human RPS19-edited model of DBA: erythroid differentiation with EPO; type: cell-based; settings: EPO 13 days, 0.1 μM nilotinib (FIGS. 14A-14C)
Protocol: FIG. 14. Nilotinib promotes erythropoiesis in a human RPS19-edited model of DBA. RPS19 gene was edited in primary human CD34^+/CD133^+ cells with CRISPR-Cas9 technology and the cells were then differentiated with EPO for 13 days in the presence of absence of 0.1 μM nilotinib. (A) Representative flow cytometry dot plots of CD235-APC vs. CD71-FITC from control and RPS19-edited cells at 13 days of differentiation with EPO. (B) Cell surface expression of CD235A from control (mock) and RPS19-deficient cells treated with DMSO or nilotinib. (C) Percentage of mature erythrocytes (CD71^−/CD235A^+) vs. percentage of erythroid progenitors (CD71^+/CD235A^−) in RPS19-deficient cells treated with DMSO or 0.1 μM nilotinib. (D) CASP1 activity of control and RPS19-deficient cells treated with DMSO or 0.1 μM nilotinib. MFI, mean fluorescence intensity.

[2] = larvae expressing human NLRP1 S107D, 1 μM nilotinib 1 to 2 dpf
[3] = larvae expressing human wild type NLRP1, 1 μM nilotinib 1 to 2 dpf

Cc1cn(-c2cc(NC(=O)c3ccc(C)c(Nc4nccc(-c5cccnc5)n4)c3)cc(C(F)(F)F)c2)cn1 [nilotinib]
neutrophilia in the Spint1a-deficient model of neutrophilic inflammation (zebrafish larvae; larvae 2 dpf, bath immersion 1 to 2 dpf, 1 μM nilotinib): reduced neutrophilia
neutrophilia induced by NLRP1 with phosphomimetic S107D mutation (zebrafish larvae; [2]): failed to reverse
neutrophilia induced by wild type NLRP1 (zebrafish larvae; [3]): able to abrogate
erythropoiesis in zebrafish (zebrafish larvae; nilotinib (FIGS. 3E and 3F)): Promote erythropoiesis in zebrafish
neutrophil number (zebrafish larvae; wild type larvae 2 dpf, bath immersion 1 to 2 dpf, 1 μM nilotinib, 100 μM anisomycin): caused a decrease in neutrophil number
caspase-1 activation induced by NLRP1 with phosphomimetic S107D mutation (caspase-1; [2]): failed to reverse
caspase-1 activation induced by wild type NLRP1 (caspase-1; [3]): able to abrogate
defective erythropoiesis of RPS19-deficient CD34+ cells [1]: rescued defective erythropoiesis

From patent US20260240846A1, “ZAK ALPHA KINASE (MAP3K20) INHIBITORS FOR USE IN THE TREATMENT OF ANEMIA” (UNIVERSIDAD DE MURCIA, priority 2023, published 2026)
